Results from PubChem BioAssay AID1918941 (Molecular Pharmacology Branch, DTP, NCI, 2023).
pIC50: −log10 of the molar value.

Test system: SW 1271 complex spheroids, viability
Experiment: Anticancer human tumor SW 1271 cell line growth inhibition [LSD1];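 further: spheroids exposed to agents for 7 days before luminescence read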;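 on viability, T/C: 100% = DMSO vehicle control viability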
Conditions: for pIC50: curve of first compound; for viability, T/C: stronger effect = lower value; active means viability on the fitted dose curve at most 10% of control; inactive means the rest
Procedure, shortened: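 Multicellular complex spheroids of tumor cells with human endothelial cells (HUVEC) and mesenchymal stem cells; the LSD1 inhibitor iadademstat was combined with standard-of-care or investigational agents. Top concentration at or near clinical Cmax, half-log dilutions; final DMSO ≤0.25%.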

[1] = second compound 0.1 µM, first compound 0.0316 µM
[2] = second compound 0.1 µM, first compound 0.1 µM
[3] = second compound 0.1 µM, first compound 0.316 µM
[4] = second compound 0.1 µM, first compound 1 µM
[5] = second compound 0.316 µM, first compound 0.0316 µM
[6] = second compound 0.316 µM, first compound 0.1 µM
[7] = second compound 0.316 µM, first compound 0.316 µM
[8] = second compound 0.316 µM, first compound 1 µM
[9] = second compound 1 µM, first compound 0.0316 µM
[10] = second compound 1 µM, first compound 0.1 µM
[11] = second compound 1 µM, first compound 0.316 µM
[12] = second compound 1 µM, first compound 1 µM
[13] = second compound 3.16 µM, first compound 0.0316 µM
[14] = second compound 3.16 µM, first compound 0.1 µM
[15] = second compound 3.16 µM, first compound 0.316 µM
[16] = second compound 3.16 µM, first compound 1 µM
[17] = second compound 10 µM, first compound 0.0316 µM
[18] = second compound 10 µM, first compound 0.1 µM
[19] = second compound 10 µM, first compound 0.316 µM
[20] = second compound 10 µM, first compound 1 µM

COc1ccc([C@@H](O)c2cc(-c3ncnc4cc(N5CCOCC5)ccc34)c(F)cc2Cl)nn1 + NC1CCC(NC2CC2c2ccccc2)CC1
6.36: pIC50 (second compound 10 µM)
6.08: pIC50 (second compound 3.16 µM)
6.09: pIC50 (second compound 0.1 µM)
inactive: viability, T/C [1] 92% | viability, T/C [2] 84.7% | viability, T/C [3] 62.1% | viability, T/C [4] 49.4% | viability, T/C (second compound 0.1 µM, first compound 3.16 µM) 29.2% | viability, T/C (second compound 0.1 µM, first compound 10 µM) 21% | viability, T/C [5] 82.1% | viability, T/C [6] 70.6% | viability, T/C [7] 58.2% | viability, T/C [8] 40.8% | viability, T/C (second compound 0.316 µM, first compound 3.16 µM) 30.3% | viability, T/C (second compound 0.316 µM, first compound 10 µM) 21.4% | viability, T/C [9] 75% | viability, T/C [10] 65.3% | viability, T/C [11] 65.2% | viability, T/C [12] 38.7% | viability, T/C (second compound 1 µM, first compound 3.16 µM) 27.5% | viability, T/C (second compound 1 µM, first compound 10 µM) 21.6% | viability, T/C [13] 68% | viability, T/C [14] 65.2% | viability, T/C [15] 66.2% | viability, T/C [16] 46.3% | viability, T/C (second compound 3.16 µM, first compound 3.16 µM) 25.5% | viability, T/C (second compound 3.16 µM, first compound 10 µM) 16.7% | viability, T/C [17] 89.4% | viability, T/C [18] 60% | viability, T/C [19] 50.4% | viability, T/C [20] 49% | viability, T/C (second compound 10 µM, first compound 3.16 µM) 26.6% | viability, T/C (second compound 10 µM, first compound 10 µM) 14.9%
6.27: pIC50 (second compound 0.316 µM)
6.22: pIC50 (second compound 1 µM)

Nc1ncn(C2CC(O)C(CO)S2)c(=O)n1 (stereo not given) + NC1CCC(NC2CC2c2ccccc2)CC1
inactive: viability, T/C (second compound 0.1 µM, first compound 0.000949 µM) 97.4% | viability, T/C (second compound 0.1 µM, first compound 0.003 µM) 82.8% | viability, T/C (second compound 0.1 µM, first compound 0.00949 µM) 92.1% | viability, T/C (second compound 0.1 µM, first compound 0.03 µM) 85.2% | viability, T/C (second compound 0.1 µM, first compound 0.0949 µM) 86.9% | viability, T/C (second compound 0.1 µM, first compound 0.3 µM) 82% | viability, T/C (second compound 0.316 µM, first compound 0.000949 µM) 98.1% | viability, T/C (second compound 0.316 µM, first compound 0.003 µM) 92% | viability, T/C (second compound 0.316 µM, first compound 0.00949 µM) 105% | viability, T/C (second compound 0.316 µM, first compound 0.03 µM) 93.6% | viability, T/C (second compound 0.316 µM, first compound 0.0949 µM) 86.7% | viability, T/C (second compound 0.316 µM, first compound 0.3 µM) 82.1% | viability, T/C (second compound 1 µM, first compound 0.000949 µM) 92.8% | viability, T/C (second compound 1 µM, first compound 0.003 µM) 84.5% | viability, T/C (second compound 1 µM, first compound 0.00949 µM) 98.6% | viability, T/C (second compound 1 µM, first compound 0.03 µM) 101% | viability, T/C (second compound 1 µM, first compound 0.0949 µM) 89.2% | viability, T/C (second compound 1 µM, first compound 0.3 µM) 72.4% | viability, T/C (second compound 3.16 µM, first compound 0.000949 µM) 94.8% | viability, T/C (second compound 3.16 µM, first compound 0.003 µM) 91.7% | viability, T/C (second compound 3.16 µM, first compound 0.00949 µM) 77.4% | viability, T/C (second compound 3.16 µM, first compound 0.03 µM) 93.9% | viability, T/C (second compound 3.16 µM, first compound 0.0949 µM) 77.7% | viability, T/C (second compound 3.16 µM, first compound 0.3 µM) 82.1% | viability, T/C (second compound 10 µM, first compound 0.000949 µM) 70.8% | viability, T/C (second compound 10 µM, first compound 0.003 µM) 84.5% | viability, T/C (second compound 10 µM, first compound 0.00949 µM) 84.5% | viability, T/C (second compound 10 µM, first compound 0.03 µM) 83.9% | viability, T/C (second compound 10 µM, first compound 0.0949 µM) 83.2% | viability, T/C (second compound 10 µM, first compound 0.3 µM) 63.6%
< 6.52: pIC50 (second compound 0.1 µM) | pIC50 (second compound 0.316 µM) | pIC50 (second compound 1 µM) | pIC50 (second compound 3.16 µM) | pIC50 (second compound 10 µM)

O=C(C=Cn1cnc(-c2cc(C(F)(F)F)cc(C(F)(F)F)c2)n1)NNc1cnccn1 + NC1CCC(NC2CC2c2ccccc2)CC1
6.69: pIC50 (second compound 10 µM)
6.87: pIC50 (second compound 0.1 µM)
6.72: pIC50 (second compound 0.316 µM)
6.64: pIC50 (second compound 1 µM)
inactive: viability, T/C (second compound 0.1 µM, first compound 0.00316 µM) 86.6% | viability, T/C (second compound 0.1 µM, first compound 0.01 µM) 91.2% | viability, T/C [1] 72.9% | viability, T/C [2] 50.2% | viability, T/C [3] 42.8% | viability, T/C [4] 24.6% | viability, T/C (second compound 0.316 µM, first compound 0.00316 µM) 84.5% | viability, T/C (second compound 0.316 µM, first compound 0.01 µM) 77.3% | viability, T/C [5] 81.3% | viability, T/C [6] 53.5% | viability, T/C [7] 46% | viability, T/C [8] 27.4% | viability, T/C (second compound 1 µM, first compound 0.00316 µM) 90.5% | viability, T/C (second compound 1 µM, first compound 0.01 µM) 101% | viability, T/C [9] 88.9% | viability, T/C [10] 62.4% | viability, T/C [11] 47% | viability, T/C [12] 18.5% | viability, T/C (second compound 3.16 µM, first compound 0.00316 µM) 81.9% | viability, T/C (second compound 3.16 µM, first compound 0.01 µM) 79.3% | viability, T/C [13] 92.1% | viability, T/C [14] 54.3% | viability, T/C [15] 48.3% | viability, T/C [16] 23.7% | viability, T/C (second compound 10 µM, first compound 0.00316 µM) 87.5% | viability, T/C (second compound 10 µM, first compound 0.01 µM) 86.6% | viability, T/C [17] 79.1% | viability, T/C [18] 59% | viability, T/C [19] 44.8% | viability, T/C [20] 29.5%
6.67: pIC50 (second compound 3.16 µM)
